Measured values from patent publication US20140017157A1, “ANTITUMOR AGENT COMPRISING CARBON DIOXIDE AS AN ACTIVE INGREDIENT” (NEOCHEMIR INC., priority 2011, published 2014).

Assays:
[1] = Body weight as an indicator of the side effect after a single dose (Example 7); assay type: in vivo, nude mice; conditions: single treatment (CO2 10 minutes; adriamycin 3 mg/kg); FIG. 15
Procedure: (§1) A breast carcinoma cell line MDA-MB-231, which is […], was subcutaneously implanted in the back of the 23 nude mice of 5 weeks old at 20 million cells/mouse. On the 18th day after the implantation, body weight and tumor volume of each nude mouse were measured. The mice were divided into the following 4 groups so that the variation in tumor volumes and body weights are reduced. The treatment was done according to Example 1 (Table 8), but only once.

cell line LM-8 = assay: Effects against the implanted highly lung-metastatic tumors in nude mice (Example 8); assay type: in vivo
Procedure: A cell line LM-8, which is the cell line of a highly lung-metastatic tumor, was subcutaneously implanted in the back of the 11 nude mice of 5 weeks old at 1 million cells/mouse. On the 3rd day after the implantation, body weight and tumor volume of each nude mouse were measured. The mice were divided into two groups so that the variation in tumor volumes and body weights are reduced. That is, one is carbon dioxide absorption group (6 mice) and the other is control group (5 mice) treated in the same way as the carbon dioxide absorption group but without the carbon dioxide absorption treatment. The treatment according to Example 1 was started on the 3rd day after the implantation. The carbon dioxide absorption was done three times-weekly and the treatment was done for 14 days. The carbon dioxide absorption was done a total of 6 times. Tumor volume was calculated by the following equation: (Maximum diameter of implanted tumor mass)×(Minimum diameter of implanted tumor mass)×(Minimum diameter of implanted tumor mass)×½. The measurement of tumor volume was done on the 3rd, 7th, 10th, 14th, 17th and 21st day after the tumor implantation. On the 21st day after the tumor implantation, a lung of each mouse was isolated and the lung weight was measured. The cross-sections of the lung, where the metastasized tumor have been stained by hematoxylin and eosin, were chosen at random and a proportion of the stained area in the cross-section was analyzed by using an image analyzing software ImageJ to obtain the lung metastasis rate of the tumor.

[2] = Body weight of tumor-bearing nude mice as an indication of a side effect (Example 5); assay type: in vivo; conditions: FIG. 12; for weight reduction as an indicator of a side effect compared to the control group: adriamycin 4 mg/kg
Procedure: MDA-MB-231, a cell line of a malignant breast carcinoma, was subcutaneously implanted in the back of the 18 nude mice of 5 weeks old at 12 million cells/mouse. On the 53rd day after the implantation, body weight and tumor volume of each nude mouse were measured. The mice were divided into the following 4 groups so that the variation in tumor volumes and body weights are reduced. The treatment was done according to Example 1 (Table 5). […] The starting date of the test was defined as the 0 day and each treatment was done on the 1st, 5th, 8th, 12th and 15th day. Tumor volume was calculated by the following equation: (Maximum diameter of implanted tumor mass)×(Minimum diameter of implanted tumor mass)×(Minimum diameter of implanted tumor mass)×½. The measurement of tumor volume was done on the 8th and 15th day after tumor implantation. The measurement of body weights of the nude mice as an indication of a side effect was done on the 8th and 15th day after tumor implantation.

MDA-MB-231 = assay: Combined effects with a chemotherapeutic agent against the implanted malignant breast carcinoma in nude mice (Example 5); assay type: in vivo; conditions: t-test; for tumor volume compared to the control group: 15th day after tumor implantation (so in the source), adriamycin 4 mg/kg; for Significance level for control group (tumor volume): P, 15th day, Table 6
Procedure: MDA-MB-231, a cell line of a malignant breast carcinoma, was subcutaneously implanted in the back of the 18 nude mice of 5 weeks old at 12 million cells/mouse. On the 53rd day after the implantation, body weight and tumor volume of each nude mouse were measured. The mice were divided into the following 4 groups so that the variation in tumor volumes and body weights are reduced. The treatment was done according to Example 1 (Table 5).
The starting date of the test was defined as the 0 day and each treatment was done on the 1st, 5th, 8th, 12th and 15th day. Tumor volume was calculated by the following equation: (Maximum diameter of implanted tumor mass)×(Minimum diameter of implanted tumor mass)×(Minimum diameter of implanted tumor mass)×½. The measurement of tumor volume was done on the 8th and 15th day after tumor implantation. The measurement of body weights of the nude mice as an indication of a side effect was done on the 8th and 15th day after tumor implantation.

MFH cell line NaraH [3] = assay: Antitumor effects (1) against the implanted tumors in nude mice (Example 1); assay type: in vivo
Procedure: An MFH cell line NaraH, which is the cell line of a malignant soft tissue tumor, was subcutaneously implanted in the back of the 10 nude mice of 5 weeks old at 12 million cells/mouse. After the implantation, body weight and tumor volume of each nude mouse were measured. The mice were divided into two groups so that the variation in tumor volumes and body weights are reduced. That is, one is carbon dioxide absorption group and the other is control group treated in the same way as carbon dioxide absorption group but without the carbon dioxide absorption treatment. A treatment was started on the 2nd day after the implantation. After anesthetizing all groups by ether inhalation, the treatment was done according to the patent document 7, that is, an absorption aid for carbon dioxide comprising 93.77% by mass of water, 5% by mass of glycerin, 0.65% by mass of carbomer, 0.15% by mass of sodium alginate, 0.15% by mass of sodium dihydrogen phosphate, 0.18% by mass of sodium hydroxide and 0.10% by mass of methylparaben was applied 2 mm thick to the dorsal skin wherein a tumor has been implanted. […] Tumor volume was calculated by the following equation: (Maximum diameter of implanted tumor mass)×(Minimum diameter of implanted tumor mass)×(Minimum diameter of implanted tumor mass)×[…]. […]

cell line NaraH [4] = assay: Antitumor effects (3) against the implanted tumors in nude mice, two regimens (Example 3); assay type: in vivo; conditions: t-test
Procedure: (§2) An MPH cell line NaraH, which is the cell line of a malignant soft tissue tumor, was subcutaneously implanted in the back of the 20 nude mice of 5 weeks old at 12 million cells/mouse. After the implantation, body weight and tumor volume were measured. The mice were divided into the following 3 groups so that the variation in tumor volumes and body weights are reduced. The treatment according to Example 1 was started on the 3rd day after the implantation (Table 1).
(§3) The treatment was done for 16 days. Tumor volume was calculated by the following equation: (Maximum diameter of implanted tumor mass)×(Minimum diameter of implanted tumor mass)×(Minimum diameter of implanted tumor mass)×½. The measurement of tumor volume was done on the 3rd, 7th, 10th, 14th and 16th day after tumor implantation.

cell line NaraH [5] = assay: Combined effects with a chemotherapeutic agent against the implanted tumors in nude mice (Example 4); assay type: in vivo; conditions: t-test; for tumor volume compared to the control group: adriamycin 6 mg/kg, CO2 twice-weekly; for Significance level for control group (tumor volume): P
Procedure: as §2, with “A cell line” for “An MPH cell line”, “of the 17 nude mice” for “of the 20 nude mice”, “tumor volume of each nude mouse were measured.” for “tumor volume were measured.”, “implantation (Table 2).” for “implantation (Table 1).”
as §3, with “9” for “16”, “7th” for “7th, 10th, 14th”, “9th” for “16th”

[6] = system: breast carcinoma cell line MDA-MB-231; assay: Antitumor effects (4) of a single dose against the implanted tumors in nude mice (Example 7); assay type: in vivo; conditions: 3rd day after starting of the treatment; single treatment (CO2 10 minutes; adriamycin 3 mg/kg); FIG. 14
Procedure: as §1
Tumor volume was calculated by the following equation: (Maximum diameter of implanted tumor mass)×(Minimum diameter of implanted tumor mass)×(Minimum diameter of implanted tumor mass)×½. The measurement of tumor volume was done on the 3rd day after starting of the treatment.

MFH cell line NaraH [7] = assay: Antitumor effects (2) against the implanted tumors in nude mice (Example 2); assay type: in vivo
Procedure: An MFH cell line NaraH, which is the cell line of a malignant soft tissue tumor, was subcutaneously implanted in the back of the 12 nude mice of 5 weeks old at 12 million cells/mouse. After the implantation, body weight and tumor volume of each nude mouse were measured. The mice were divided into 2 groups so that the variation in tumor volumes and body weights are reduced. That is, one is carbon dioxide absorption group and the other is control group treated in the same way as carbon dioxide absorption group but without the carbon dioxide absorption treatment. The treatment according to Example 1 was started on the 3rd day after the implantation. The carbon dioxide absorption was done twice-weekly and the treatment was done for 14 days. The carbon dioxide absorption was done a total of 3 times. Tumor volume was calculated by the following equation: (Maximum diameter of implanted tumor mass)×(Minimum diameter of implanted tumor mass)×(Minimum diameter of implanted tumor mass)×½. The measurement of tumor volume was done on the 3rd, 7th, 10th and 14th day after the tumor implantation.

[8] = 14 days treatment, twice-weekly CO2 absorption
[9] = 7th day after tumor implantation
[10] = 9th day after tumor implantation
[11] = 7th day after tumor implantation, Table 3
[12] = 9th day after tumor implantation, Table 4

SMILES	body weight reduction as an indicator of the side effect [1]	weight reduction as an indicator of a side effect compared to the control group [2]	tumor volume compared to the control group (MDA-MB-231)	Significance level for control group (tumor volume) (MDA-MB-231)	tumor volume compared to the control group (cell line NaraH [5]; [9])	tumor volume compared to the control group (cell line NaraH [5]; [10])	Significance level for control group (tumor volume) (cell line NaraH [5]; [11])	Significance level for control group (tumor volume) (cell line NaraH [5]; [12])	tumor volume relative to initial volume [6]	further results
O=C=O [carbon dioxide]	not observed	significant weight reduction was not found	statistically significantly reduced	P < 0.001	statistically significantly reduced	statistically significantly reduced	P < 0.001	P < 0.05	reduced to two-thirds of initial volumes	lung weights compared to the control group (cell line LM-8; 21st day after tumor implantation, CO2 three times-weekly, total of 6 times, t-test, FIG. 16): statistically significantly reduced; lung metastasis rates compared to the control group (cell line LM-8; 21st day after tumor implantation, proportion of stained area in lung cross-section, t-test, FIG. 17): statistically significantly reduced; significance level (P) of lung weight reduction compared to the control group (cell line LM-8; 21st day, t-test, FIG. 16): < 0.05; significance level (P) of lung metastasis rate reduction compared to the control group (cell line LM-8; 21st day, t-test, FIG. 17): < 0.05; deaths during the experiment period (cell line LM-8; CO2 three times-weekly for 14 days): no deaths; subcutaneously-implanted tumor volumes compared to the control group (cell line LM-8; CO2 three times-weekly, total of 6 times, t-test, FIG. 18): statistically significantly reduced; significance level (P) of subcutaneously-implanted tumor volume reduction compared to the control group (cell line LM-8; t-test, FIG. 18): < 0.05; tumor volume compared to the control group (MFH cell line NaraH [3]; 16th day after tumor implantation, transdermal CO2 absorption 10 minutes, twice-weekly, total of 4 times, t-test, FIG. 1): statistically significantly reduced; deaths during the experiment period (MFH cell line NaraH [3]; [8]): no deaths; tumor volume compared to the control group (cell line NaraH [4]; group of 5 times-weekly administration early in treatment (5 consecutive days from first day), FIG. 4): statistically significantly reduced; tumor volume compared to the control group (cell line NaraH [4]; group of twice-weekly administration, treatment 16 days, FIG. 3): statistically significantly reduced; tumor volume compared to the control group (MFH cell line NaraH [7]; 14th day after tumor implantation, twice-weekly, total of 3 times, t-test, FIG. 2): statistically significantly reduced; deaths during experimental period (MFH cell line NaraH [7]; [8]): no deaths
COc1cccc2c1C(=O)c1c(O)c3c(c(O)c1C2=O)C[C@@](O)(C(=O)CO)C[C@@H]3O[C@H]1C[C@H](N)[C@H](O)[C@H](C)O1 [chemotherapeutic agent, adriamycin, reference compound]	reduced	statistically significant	statistically significantly reduced	P < 0.005	statistically significantly reduced	statistically significantly reduced	P < 0.005	P < 0.05	not changed	significance level (P) of weight reduction compared to the carbon dioxide-alone group [2]: < 0.05; weight reduction compared to the carbon dioxide-alone group [2]: Significant weight reduction was found
